The source of these data is article PMC5908784, “Extracellular loops 2 and 3 of the calcitonin receptor selectively modify agonist binding and efficacy” (Biochemical Pharmacology, 2018).

Positions count from the first letter of the chain named. Where two headings read alike, the source gives them in different places. Where a SMILES comes first, the peptide text is derived from it. Bridges are numbered along the chain shown (N, C = ends).

In test [1] the target is T1, hCTR F356A (Homo sapiens, UniProt P30988, F356A).
T1 construct: c-Myc (N); expressed in transfected cells
T1 sequence (P30988 25-474 F356A): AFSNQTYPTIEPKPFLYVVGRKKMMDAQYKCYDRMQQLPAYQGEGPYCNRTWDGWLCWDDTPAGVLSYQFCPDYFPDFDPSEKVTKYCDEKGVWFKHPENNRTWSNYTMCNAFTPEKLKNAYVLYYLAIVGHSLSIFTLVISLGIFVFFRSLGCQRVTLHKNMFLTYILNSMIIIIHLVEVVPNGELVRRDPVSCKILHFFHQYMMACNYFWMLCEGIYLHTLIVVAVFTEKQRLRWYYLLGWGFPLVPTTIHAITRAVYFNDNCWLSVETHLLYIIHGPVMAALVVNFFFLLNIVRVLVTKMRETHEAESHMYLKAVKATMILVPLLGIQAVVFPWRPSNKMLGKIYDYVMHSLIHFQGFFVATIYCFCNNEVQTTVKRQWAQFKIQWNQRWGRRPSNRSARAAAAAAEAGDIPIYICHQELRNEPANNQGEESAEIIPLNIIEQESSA
Nature of the test: IP1 accumulation. The format is cell-based. Conditions: SEM, read-out: Emax (% WT). The gist of the method:
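HTRF IP-One readout of IP1 after 60 min ligand stimulation (LiCl present), cells seeded overnight. Normalized to 100 μM ATP max response. EC50/Emax via 3-parameter logistic curve fit.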

Test [2] addresses T2, hCTR L368A (Homo sapiens, UniProt P30988, L368A).
T2 construct: c-Myc (N); expressed in transfected cells
T2 sequence (P30988 25-474 L368A): T1 sequence (P30988 25-474 F356A) with A332F, L344A
Nature of the test: Heterologous whole cell competition binding. Conditions: heterologous competition of 125I-sCT(8-32), whole cells, mean ± S.E.M., SEM. As for the experimental part: (§1) Following overnight incubation non-bound ligand was removed and radioactivity was determined using a gamma counter.
(§2) Data were corrected for radioligand occupancy using the Cheng-Prusoff equation in Prism; as such data are reported as pKi. Emax and EC50 were estimated from concentration-response curves using with a 3-parameter logistic equation in Prism (v7). These values are a composite of functional affinity, efficacy and stimulus response coupling. […] Significance was accepted at P < 0.05.

Test [3] deals with T3, hCTR V293A (Homo sapiens, UniProt P30988, V293A).
T3 construct: c-Myc (N); expressed in transfected cells
T3 sequence (P30988 25-474 V293A): T1 sequence (P30988 25-474 F356A) with V269A, A332F
The test is described as follows: Heterologous whole cell competition binding. Conditions: heterologous competition of 125I-sCT(8-32), whole cells, mean ± S.E.M., SEM. As for the experimental part: as §1, §2

The target of test [4] is T4, hCTR D287A (Homo sapiens, UniProt P30988, D287A).
T4 construct: c-Myc (N); expressed in transfected cells
T4 sequence (P30988 25-474 D287A): T1 sequence (P30988 25-474 F356A) with D263A, A332F
The test is described as follows: IP1 accumulation. The format is cell-based. Conditions: mean ± S.E.M. As for the experimental part: Cells (2.5 × 10^4 cells/well) were plated into 96 well trays and cultured overnight. Cells were stimulated with increasing concentration of ligands for 60 min in the presence of LiCl. Samples were lysed and endogenous IP1 was measured using an IP-One HTRF® assay kit (CisBio) as specified by the manufacturer. Data were normalized to the maximal response elicited by 100 μM of ATP.
IC50 and Bmax values were estimated from competitive inhibition of ^125I-sCT(8-32) binding using a 3-parameter logistic equation (log(inhibitor versus response)) in Prism (v7; Graphpad). Data were corrected for radioligand occupancy using the Cheng-Prusoff equation in Prism; as such data are reported as pKi. Emax and EC50 were estimated from concentration-response curves using with a 3-parameter logistic equation in Prism (v7). These values are a composite of functional affinity, efficacy and stimulus response coupling. […] Derived τ values were normalized to experimentally determined levels of cell surface expression to provide a measure of efficacy (τc) that is independent of affinity and altered cell surface receptor expression. pKi, pKA and log τc values for mutant receptors were statistically compared to those of the WT receptor using a one-way analysis of variance (ANOVA) and Dunnett’s post-test. […]

For `CC(C)C[C@H](NC(=O)[C@H](CCCCN)NC(=O)CNC(=O)[C@H](CC(C)C)NC(=O)[C@@H](NC(=O)[C@@H]1CSSC[C@H](N)C(=O)N[C@@H](CO)C(=O)N[C@@H](CC(N)=O)C(=O)N[C@@H](CC(C)C)C(=O)N[C@@H](CO)C(=O)N[C@@H]([C@@H](C)O)C(=O)N1)C(C)C)C(=O)N[C@@H](CO)C(=O)N[C@@H](CCC(N)=O)C(=O)N[C@@H](CCC(=O)O)C(=O)N[C@@H](CC(C)C)C(=O)N[C@@H](Cc1c[nH]cn1)C(=O)N[C@@H](CCCCN)C(=O)N[C@@H](CC(C)C)C(=O)N[C@@H](CCC(N)=O)C(=O)N[C@H](C(=O)N[C@@H](Cc1ccc(O)cc1)C(=O)N1CCC[C@H]1C(=O)N[C@@H](CCCNC(=N)N)C(=O)N[C@H](C(=O)N[C@@H](CC(N)=O)C(=O)N[C@H](C(=O)NCC(=O)N[C@@H](CO)C(=O)NCC(=O)N[C@H](C(=O)N1CCC[C@H]1C(N)=O)[C@@H](C)O)[C@@H](C)O)[C@@H](C)O)[C@@H](C)O` [sCT], the maximum response (Emax) in test [1] (F356A, IP1 maximal response, mean ± S.E.M.) amounted to 36 ± 3%.
`CSCC[C@H](NC(=O)CNC(=O)[C@H](CO)NC(=O)[C@H](Cc1ccccc1)NC(=O)[C@H](CCCNC(=N)N)NC(=O)[C@H](Cc1c[nH]cn1)NC(=O)[C@H](Cc1ccccc1)NC(=O)[C@H](CC(N)=O)NC(=O)[C@H](CC(N)=O)NC(=O)[C@H](CC(C)C)NC(=O)[C@H](CC(N)=O)NC(=O)[C@H](CCCNC(=N)N)NC(=O)[C@H](Cc1c[nH]c2ccccc12)NC(=O)[C@H](Cc1ccc(O)cc1)NC(=O)[C@H](C)NC(=O)[C@H](CO)NC(=O)[C@H](CC(C)C)NC(=O)[C@@H](NC(=O)[C@@H]1CSSC[C@H](N)C(=O)N[C@@H](CO)C(=O)N[C@@H](CC(N)=O)C(=O)N[C@@H](CC(C)C)C(=O)N[C@@H](CO)C(=O)N[C@@H]([C@@H](C)O)C(=O)N1)C(C)C)C(=O)NCC(=O)N[C@@H](Cc1ccccc1)C(=O)NCC(=O)N1CCC[C@H]1C(=O)N[C@@H](CCC(=O)O)C(=O)N[C@H](C(=O)N1CCC[C@H]1C(N)=O)[C@@H](C)O` [pCT] (H-CSNLSTCVLSAYWRNLNNFHRFSGMGFGPETP-NH2; disulfide 1-7): the inhibitory constant (Ki) was 8.51 nM in test [2] and 14.1 nM in test [3]. Moreover, the response in test [4] (IP1, CV1-FlpIn cells, 60 min, LiCl) was half-maximal at 3.72 nM (EC50). In addition, the Emax in test [4] (IP1 maximal response, SEM) was 56 ± 7%.
Consider `CC[C@H](C)[C@H](NC(=O)[C@H](C)NC(=O)[C@@H](NC(=O)[C@H](CCC(N)=O)NC(=O)[C@@H]1CCCN1C(=O)[C@H](Cc1ccccc1)NC(=O)[C@@H](NC(=O)[C@H](Cc1c[nH]cn1)NC(=O)[C@H](Cc1ccccc1)NC(=O)[C@H](CCCCN)NC(=O)[C@H](CC(N)=O)NC(=O)[C@H](Cc1ccccc1)NC(=O)[C@H](CC(=O)O)NC(=O)[C@H](CCC(N)=O)NC(=O)[C@@H](NC(=O)[C@H](Cc1ccc(O)cc1)NC(=O)[C@@H](NC(=O)CNC(=O)[C@H](CC(C)C)NC(=O)[C@H](CCSC)NC(=O)[C@@H]1CSSC[C@H](N)C(=O)NCC(=O)N[C@@H](CC(N)=O)C(=O)N[C@@H](CC(C)C)C(=O)N[C@@H](CO)C(=O)N[C@@H]([C@@H](C)O)C(=O)N1)[C@@H](C)O)[C@@H](C)O)[C@@H](C)O)[C@@H](C)O)C(=O)NCC(=O)N[C@H](C(=O)NCC(=O)N[C@@H](C)C(=O)N1CCC[C@H]1C(N)=O)C(C)C` [hCT], for which the Emax in test [1] turned out to be 69 ± 6%.
